According to patent publication US9725442B2, “Heterocyclic derivative having PGD2 receptor antagonist activity” (Shionogi & Co., Ltd., priority 2011, dated 2017):
Like-named read-outs stand apart in the source and are kept apart here.

What was measured:
Human DP1 receptor = Human DP1 receptor (Homo sapiens (Human), UniProt Q13258); experiment: Human DP1 inhibitory activity in DP1-expressing cell (PGD2-induced cAMP); type: cell-based
Protocol: Compounds were categorized as AA (cAMP is less than 100 nM) and A (cAMP is more than 100 nM and less than 5000 nM) as shown in Table 99 and 100.

CRTH2 = CRTH2 (Homo sapiens (Human), UniProt Q9Y5Y4); experiment: CRTH2 receptor binding inhibitory activity ([3H]-PGD2 displacement, membranes of CRTH2-expressing K562 cell); conditions: [3H]-PGD2 displacement, membrane of CRTH2-expressing K562 cell, read-out: Ki
Procedure, shortened: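 Incubation ran 60 min at room temperature using 20 μg/well membrane from CRTH2-expressing K562 cells in pH 7.4 Tris/HCl (50 mM) with 10 mM MgCl2.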

[1] = category of cAMP IC50, human DP1 receptor expressing Jurkut cell
[2] = CRTH2 receptor binding, categorized AAAA/AAA

Chain of CRTH2 (Q9Y5Y4 whole entry): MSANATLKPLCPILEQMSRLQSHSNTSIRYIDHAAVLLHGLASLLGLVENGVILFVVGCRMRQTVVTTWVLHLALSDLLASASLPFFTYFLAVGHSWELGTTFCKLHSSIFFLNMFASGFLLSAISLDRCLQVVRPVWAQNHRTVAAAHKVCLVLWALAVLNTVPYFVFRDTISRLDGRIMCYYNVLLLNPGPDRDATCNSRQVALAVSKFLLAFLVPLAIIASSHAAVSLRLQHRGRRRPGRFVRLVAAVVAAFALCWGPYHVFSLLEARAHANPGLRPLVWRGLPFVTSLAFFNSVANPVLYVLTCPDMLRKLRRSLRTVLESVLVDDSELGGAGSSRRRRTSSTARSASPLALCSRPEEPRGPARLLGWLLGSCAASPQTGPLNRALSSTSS
Chain of Human DP1 receptor (Q13258 whole entry): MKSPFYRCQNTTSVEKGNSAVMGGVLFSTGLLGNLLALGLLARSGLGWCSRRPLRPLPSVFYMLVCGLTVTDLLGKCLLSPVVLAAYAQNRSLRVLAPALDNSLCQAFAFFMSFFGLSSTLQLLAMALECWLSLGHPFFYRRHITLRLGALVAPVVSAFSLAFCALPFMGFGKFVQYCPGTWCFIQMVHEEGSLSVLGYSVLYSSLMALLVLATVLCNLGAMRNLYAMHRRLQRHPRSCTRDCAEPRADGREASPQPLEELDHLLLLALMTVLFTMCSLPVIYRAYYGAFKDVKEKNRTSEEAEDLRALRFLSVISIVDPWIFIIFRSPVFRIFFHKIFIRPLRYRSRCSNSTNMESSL

| Structure (SMILES) | IC50 (Human DP1 receptor; [1]) | Ki (CRTH2; [2]) | Ki (CRTH2) | IC50 (Human DP1 receptor; IC50 of PGD2 (60 nM)-induced cAMP increase, human DP1 receptor expressing Jurkut cell) |
| --- | --- | --- | --- | --- |
| CCOc1ccc(S(=O)(=O)N2C[C@H](n3nc(CC(=O)O)c4ccc(F)cc43)[C@H](C)[C@H]2C#N)cc1 [Compound I-217] | < 100 nM | < 100 nM |  |  |
| COc1ccc(S(=O)(=O)N2C[C@@H](C)[C@@H](n3nc(CC(=O)O)c4cc(Cl)ccc43)C2)cc1 [Compound I-218] | < 100 nM | 100 to 5000 nM |  |  |
| CCOc1ccc(S(=O)(=O)N2C[C@@H](C)[C@@H](n3nc(CC(=O)O)c4ccc(N5CCOCC5)cc43)C2)cc1 [Compound I-219] | 100 to 5000 nM | 100 to 5000 nM | 230 nM |  |
| CCOc1ccc(S(=O)(=O)N2C[C@@H](C)[C@@H](n3nc(CC(=O)O)c4ccc(C5=CCCCC5)cc43)C2)cc1 [Compound I-220] | < 100 nM | < 100 nM | 8.1 nM | 32 nM |
| CCOc1ccc(S(=O)(=O)N2C[C@@H](C)[C@@H](n3nc(CC(=O)O)c4ccc(C5=CCCCC5)cc43)C2)cn1 [Compound I-221] | < 100 nM | < 100 nM |  |  |
| CCOc1ccc(S(=O)(=O)N2C[C@@H](C)[C@@H](n3nc(CC(=O)O)c4ccc(C5CCCCC5)cc43)C2)cc1 [Compound I-223] | 100 to 5000 nM | < 100 nM |  |  |
| CCOc1ccc(S(=O)(=O)N2C[C@@H](C)[C@@H](n3nc(CC(=O)O)c4ccc(C5CCCCC5)cc43)C2)cn1 [Compound I-224] | 100 to 5000 nM | < 100 nM |  |  |
| CCOc1ccc(S(=O)(=O)N2C[C@@H](C)[C@@H](n3nc(CC(=O)O)c4ccc(OC)cc43)C2)cc1 [Compound I-225] | < 100 nM | < 100 nM |  |  |
| CCOc1ccc(S(=O)(=O)N2C[C@@H](C)[C@@H](n3nc(CC(=O)O)c4ccc(OC)cc43)C2)cn1 [Compound I-226] | 100 to 5000 nM | < 100 nM |  |  |
| Cc1ccc2c(CC(=O)O)nn([C@H]3CN(S(=O)(=O)c4ccc(OC(C)C)nc4)C[C@H]3C)c2c1 [Compound I-229] | < 100 nM | < 100 nM |  |  |
| COc1ccc(S(=O)(=O)N2C[C@@H](C)[C@@H](n3nc(CC(=O)O)c4ccc(C)cc43)C2)cc1 [Compound I-230] | < 100 nM | < 100 nM |  |  |
| Cc1ccc2c(CC(=O)O)nn([C@H]3CN(S(=O)(=O)c4ccc(OC(F)(F)F)cc4)C[C@H]3C)c2c1 [Compound I-231] | < 100 nM | < 100 nM |  |  |
| CCc1ccc(S(=O)(=O)N2C[C@@H](C)[C@@H](n3nc(CC(=O)O)c4ccc(C)cc43)C2)cc1 [Compound I-232] | < 100 nM | < 100 nM |  |  |

Second part, the compound after the results:

| IC50 (Human DP1 receptor; [1]) | Ki (CRTH2; [2]) | Ki (CRTH2) | IC50 (Human DP1 receptor; IC50 of PGD2 (60 nM)-induced cAMP increase, human DP1 receptor expressing Jurkut cell) | Structure (SMILES) |
| --- | --- | --- | --- | --- |
| < 100 nM | < 100 nM |  |  | COc1ccc(S(=O)(=O)N2C[C@@H](C)[C@@H](n3nc(CC(=O)O)c4ccc(F)cc43)C2)c(F)c1 [Compound I-233] |
| 100 to 5000 nM | < 100 nM |  |  | COc1ccc(S(=O)(=O)N2C[C@@H](C)[C@@H](n3nc(CC(=O)O)c4ccc(F)cc43)C2)nc1 [Compound I-234] |
| 100 to 5000 nM | < 100 nM |  |  | CCOc1ccc(S(=O)(=O)N2C[C@@H](C)[C@@H](n3nc(CC(=O)O)c4ccc(F)cc43)C2)nc1 [Compound I-235] |
| < 100 nM | < 100 nM |  |  | COc1ccc(S(=O)(=O)N2C[C@@H](C)[C@@H](n3nc(CC(=O)O)c4ccc(C)cc43)C2)c(F)c1 [Compound I-236] |
| < 100 nM | < 100 nM |  |  | CCOc1ccc(S(=O)(=O)N2C[C@@H](C)[C@@H](n3nc(CC(=O)O)c4ccc(C)cc43)C2)c(F)c1 [Compound I-237] |
| 100 to 5000 nM | < 100 nM |  |  | CC(C)C1CC1S(=O)(=O)N1C[C@@H](C)[C@@H](n2nc(CC(=O)O)c3ccccc32)C1 (stereo partly drawn) [Compound I-238] |
| 100 to 5000 nM | < 100 nM | 4.4 nM |  | CC(C)C1CC1S(=O)(=O)N1C[C@@H](C)[C@@H](n2nc(CC(=O)O)c3ccc(F)cc32)C1 (stereo partly drawn) [Compound I-239] |
| 100 to 5000 nM | < 100 nM |  |  | COc1ccc(S(=O)(=O)N2C[C@@H](C)[C@@H](n3nc(CC(=O)O)c4ccccc43)C2)cn1 [Compound I-240] |
| < 100 nM | < 100 nM |  |  | COc1ccc(S(=O)(=O)N2C[C@@H](C)[C@@H](n3nc(CC(=O)O)c4ccccc43)C2)cc1 [Compound I-241] |
